Test results published in patent US8946144B2, “Phosphonated glycopeptide and lipoglycopeptide antibiotics and uses thereof for the prevention and treatment of bone and joint infections” (The Medicines Company, priority 2006, dated 2015).
≈ marks a conversion by molar mass, not a printed value. Counter-ions that a name gives are not always drawn.

Columns and labels:
[1] = test system: S. aureus strain ATCC13709; experiment: Antibacterial susceptibility (MIC) in the presence of 50% serum; assay type: cell-based; conditions: for Minimum inhibitory concentration, CAMHB + 50% Human Serum / Minimum inhibitory concentration, CAMHB + 50% Mouse Serum / Minimum inhibitory concentration, CAMHB + 50% Rat Serum: S. aureus ATCC 13709; for MIC: Staphylococcus aureus
Protocol: (§1) Susceptibility of S. aureus strain ATCC13709 to the commercial antibiotics and synthesized compounds was determined by following the guidelines set by the Clinical and Laboratory Standards Institute (formerly the National Committee for Clinical Laboratory Standards) (M26-A). Compounds were diluted two-fold serially in either DMSO (Vancomycin 4, Oritavancin 8, compounds 10, 31, 33, 39, 44, 50, 60, 65), DMF (compounds 18 and 21) or in PBS (compound 6) and transferred to cation-adjusted Mueller Hinton broth (CAMHB; Becton Dickinson). 50 μL of compounds diluted in CAMHB was mixed with […] of bacteria diluted in CAMHB in 96-well microtiter plates. The final number of micro-organisms in the assay was 5×10^5 c.f.u. per mL and the final concentration of DMSO or DMF in the assay, if present, was 1.25%. Assays were set up in duplicate and incubated at 37° C. for 18 h. The concentration of compound that inhibited visible growth was reported as the minimum inhibitory concentration (MIC).
Susceptibility testing experiments were also carried out in the presence of serum. These experiments were carried out similar to the susceptibility testing with the following modifications. 75 μL of compounds diluted in CAMHB was mixed with 75 μL of bacteria diluted in 100% serum from any given source (commercial pooled mouse serum (MS) and human serum (HS), Equitech-Bio Inc.). The final concentration of animal serum in the assay was 50% and the concentrations of all other components were identical to those described for susceptibility testing.

[2] = test system: S. aureus strain ATCC13709; experiment: Antibacterial susceptibility (MIC) in CAMHB; assay type: cell-based; conditions: for Minimum inhibitory concentration, CAMHB: S. aureus ATCC 13709, cation adjusted Mueller-Hinton broth, 37° C., 18 h; for MIC: Staphylococcus aureus, ATCC13709, 18 h, read-out: Minimum inhibitory concentration, CAMHB
Protocol: as §1

[3] = Regeneration of parent drug from bone powder-bound prodrug; assay type: in vitro ADME; conditions: 24 h incubation, 37° C.
Protocol: Amounts of parent drug “regenerated” from the phosphonated prodrug were measured as follows. Washed bone powder-bound prodrugs from the above experiment were resuspended in 400 μL PBS+2% DMSO or in 400 μL 50% (v/v in PBS+2% DMSO) human or rat serum. The suspension was incubated overnight at 37° C., centrifuged at 13,000 rpm for 2 min and the supernatant was recovered. The amount of regenerated parent drug in the supernatant was determined by measurements using the microbiological assays that were previously described for the prodrugs themselves. The amount of released drug from prodrug was deduced from standard curves of known amounts of parent drug that were used as reference for each experiment. The amount of regenerated drug assessed by this bioassay was corroborated by MIC determination. The percentage of drug regenerated in PBS or serum after the overnight incubation (Table 2) was deduced from the difference between the amount of bound prodrug and the amount of regenerated drug (not shown).

[4] = ATCC13709, read-out: Minimum inhibitory concentration, CAMHB + 50% Human Serum
[5] = ATCC13709, read-out: Minimum inhibitory concentration, CAMHB + 50% Mouse Serum
[6] = ATCC13709, read-out: Minimum inhibitory concentration, CAMHB + 50% Rat Serum

| Structure (SMILES) | Minimum inhibitory concentration, CAMHB + 50% Human Serum [1] [µg/mL] | Minimum inhibitory concentration, CAMHB + 50% Mouse Serum [1] [µg/mL] | Minimum inhibitory concentration, CAMHB + 50% Rat Serum [1] [µg/mL] | Minimum inhibitory concentration, CAMHB [2] [µg/mL] | % Conversion (prodrug converted to parent drug) ([3]; 50% human serum) [%] | % Conversion (prodrug converted to parent drug) ([3]; 50% rat serum) [%] | % Conversion (prodrug converted to parent drug) ([3]; PBS) [%] | MIC [1, 4] [µg/mL] | MIC [1, 5] [µg/mL] | MIC [1, 6] [µg/mL] | MIC [2] [µg/mL] |
| --- | --- | --- | --- | --- | --- | --- | --- | --- | --- | --- | --- |
| CC(C)CC(C(=O)NC1C(=O)NC(CC(N)=O)C(=O)NC2C(=O)NC3C(=O)NC(C(=O)NC(C(=O)O)c4cc(O)cc(O)c4-c4cc3ccc4O)C(O)c3ccc(c(Cl)c3)Oc3cc2cc(c3OC2OC(CO)C(O)C(O)C2OC2CC(C)(N)C(O)C(C)O2)Oc2ccc(cc2Cl)C1O)N(C)C(=O)CCC(=O)NC(P(=O)(O)O)P(=O)(O)O (stereo not shown) [Compound 6] | 16 | 32 | 128 | 64 (≈ 37.2 µM) | – | – | – | – | – | – | – |
| CC(C)C[C@H](C(=O)N[C@H]1C(=O)N[C@@H](CC(N)=O)C(=O)N[C@H]2C(=O)N[C@H]3C(=O)N[C@H](C(=O)N[C@H](C(=O)O)c4cc(O)cc(O)c4-c4cc3ccc4O)[C@H](O[C@H]3C[C@](C)(N)[C@@H](O)[C@H](C)O3)c3ccc(c(Cl)c3)Oc3cc2cc(c3O[C@@H]2O[C@H](CO)[C@@H](O)[C@H](O)[C@H]2O[C@H]2C[C@](C)(NCc3ccc(-c4ccc(Cl)cc4)cc3)[C@@H](O)[C@H](C)O2)Oc2ccc(cc2Cl)[C@H]1O)N(C)C(=O)CCCC(=O)NC(P(=O)(O)O)P(=O)(O)O.N.N.N [Compound 10] | >32 | >32 | >32 | >32 | – | – | – | – | – | – | – |
| CNC(CC(C)C)C(=O)NC1C(=O)NC(CC(N)=O)C(=O)NC2C(=O)NC3C(=O)NC(C(=O)NC(C(=O)OCC(=O)NC(P(=O)(O)O)P(=O)(O)O)c4cc(O)cc(O)c4-c4cc3ccc4O)C(O)c3ccc(c(Cl)c3)Oc3cc2cc(c3OC2OC(CO)C(O)C(O)C2OC2CC(C)(N)C(O)C(C)O2)Oc2ccc(cc2Cl)C1O (stereo not shown) [Compound 18] | 8 | 16 | 32 | 16 (≈ 9.52 µM) | 2.34 | 2.58 | 2.09 | – | – | – | – |
| CNC(CC(C)C)C(=O)NC1C(=O)NC(CC(N)=O)C(=O)NC2C(=O)NC3C(=O)NC(C(=O)NC(C(=O)OCC(=O)Nc4ccc(CC(P(=O)(O)O)P(=O)(O)O)cc4)c4cc(O)cc(O)c4-c4cc3ccc4O)C(O)c3ccc(c(Cl)c3)Oc3cc2cc(c3OC2OC(CO)C(O)C(O)C2OC2CC(C)(N)C(O)C(C)O2)Oc2ccc(cc2Cl)C1O (stereo not shown) [Compound 21] | 16 | 16 | 32 | 16 (≈ 9.04 µM) | 3.5 | 4.1 | 3.5 | – | – | – | – |
| CN[C@H](CC(C)C)C(=O)N[C@H]1C(=O)N[C@@H](CC(N)=O)C(=O)N[C@H]2C(=O)N[C@H]3C(=O)N[C@H](C(=O)N[C@H](C(=O)OCC(=O)NC(P(=O)(O)O)P(=O)(O)O)c4cc(O)cc(O)c4-c4cc3ccc4O)[C@H](O[C@H]3C[C@](C)(N)[C@@H](O)[C@H](C)O3)c3ccc(c(Cl)c3)Oc3cc2cc(c3O[C@@H]2O[C@H](CO)[C@@H](O)[C@H](O)[C@H]2O[C@H]2C[C@](C)(NCc3ccc(-c4ccc(Cl)cc4)cc3)[C@@H](O)[C@H](C)O2)Oc2ccc(cc2Cl)[C@H]1O.O=C(O)C(F)(F)F.O=C(O)C(F)(F)F.O=C(O)C(F)(F)F [Compound 31] | 32 | 2 | 2 | 16 | – | – | – | – | – | – | – |
| CN[C@H](CC(C)C)C(=O)N[C@H]1C(=O)N[C@@H](CC(N)=O)C(=O)N[C@H]2C(=O)N[C@H]3C(=O)N[C@H](C(=O)N[C@H](C(=O)OCC(=O)Nc4ccc(CC(P(=O)(O)O)P(=O)(O)O)cc4)c4cc(O)cc(O)c4-c4cc3ccc4O)[C@H](O[C@H]3C[C@](C)(N)[C@@H](O)[C@H](C)O3)c3ccc(c(Cl)c3)Oc3cc2cc(c3O[C@@H]2O[C@H](CO)[C@@H](O)[C@H](O)[C@H]2O[C@H]2C[C@](C)(NCc3ccc(-c4ccc(Cl)cc4)cc3)[C@@H](O)[C@H](C)O2)Oc2ccc(cc2Cl)[C@H]1O.N.N.N [Compound 33] | >32 | 8 | 8 | >32 | – | – | – | – | – | – | – |
| CC(C)C[C@H](C(=O)N[C@H]1C(=O)N[C@@H](CC(N)=O)C(=O)N[C@H]2C(=O)N[C@H]3C(=O)N[C@H](C(=O)N[C@H](C(=O)O)c4cc(O)cc(O)c4-c4cc3ccc4O)[C@H](O[C@H]3C[C@](C)(N)[C@@H](O)[C@H](C)O3)c3ccc(c(Cl)c3)Oc3cc2cc(c3O[C@@H]2O[C@H](CO)[C@@H](O)[C@H](O)[C@H]2O[C@H]2C[C@](C)(NCc3ccc(-c4ccc(Cl)cc4)cc3)[C@@H](O)[C@H](C)O2)Oc2ccc(cc2Cl)[C@H]1O)N(C)C(=O)CC(P(=O)(O)O)P(=O)(O)O.N.N.N [Compound 44] | 32 | 4 | 4 | 32 | – | – | – | – | – | – | – |
| CC(C)C[C@H](C(=O)N[C@H]1C(=O)N[C@@H](CC(N)=O)C(=O)N[C@H]2C(=O)N[C@H]3C(=O)N[C@H](C(=O)N[C@H](C(=O)O)c4cc(O)cc(O)c4-c4cc3ccc4O)[C@H](O[C@H]3C[C@](C)(N)[C@@H](O)[C@H](C)O3)c3ccc(c(Cl)c3)Oc3cc2cc(c3O[C@@H]2O[C@H](CO)[C@@H](O)[C@H](O)[C@H]2O[C@H]2C[C@](C)(NCc3ccc(-c4ccc(Cl)cc4)cc3)[C@@H](O)[C@H](C)O2)Oc2ccc(cc2Cl)[C@H]1O)N(C)C(=O)CCCOC(=O)CC(P(=O)(O)O)P(=O)(O)O [Compound 50] | >32 | 32 | >32 | 32 (≈ 15.3 µM) | – | – | – | – | – | – | – |
| CN[C@H](CC(C)C)C(=O)N[C@H]1C(=O)N[C@@H](CC(N)=O)C(=O)N[C@H]2C(=O)N[C@H]3C(=O)N[C@H](C(=O)N[C@H](C(=O)O)c4cc(O)cc(O)c4-c4cc3ccc4O)[C@H](O[C@H]3C[C@](C)(N)[C@@H](O)[C@H](C)O3)c3ccc(c(Cl)c3)Oc3cc2cc(c3O[C@@H]2O[C@H](CO)[C@@H](O)[C@H](O)[C@H]2O[C@H]2C[C@](C)(NCc3ccc(-c4ccc(Cl)cc4)cc3)[C@@H](O)[C@H](C)O2)Oc2ccc(cc2Cl)[C@H]1O [Oritavancin (8), oritavancin bisphosphoric acid salt, reference compound] | – | – | – | – | – | – | – | 1 | 2 | 0.25 | 0.5 |
| CN[C@H](CC(C)C)C(=O)N[C@H]1C(=O)N[C@@H](CC(N)=O)C(=O)N[C@H]2C(=O)N[C@H]3C(=O)N[C@H](C(=O)N[C@H](C(=O)O)c4cc(O)cc(O)c4-c4cc3ccc4O)[C@H](O)c3ccc(c(Cl)c3)Oc3cc2cc(c3O[C@@H]2O[C@H](CO)[C@@H](O)[C@H](O)[C@H]2O[C@H]2C[C@](C)(N)[C@H](O)[C@H](C)O2)Oc2ccc(cc2Cl)[C@H]1O [Vancomycin (4), vancomycin hydrochloride, reference compound] | – | – | – | – | – | – | – | 1 | 2 | 2 | 1 |
